Test results: US20250066369A1, “BICYCLIC PHTHALAZIN-1(2H)-ONE DERIVATIVES AND RELATED USES” (NodThera Limited, priority 2022, published 2025)
Counter-ions that a name gives are not always drawn.

test system: IL-1β release upon NLRP3 activation in peripheral blood mononuclear cells (PBMC); assay: PBMC IC50 determination assay: inhibition of IL-1β release upon NLRP3 activation; format: cell-based; details: PBMC primed with LPS 3 h, compound 30 min, stimulated with ATP (5 mM) or nigericin (10 μM) 1 h; IL-1β by ELISA (Protocol A) or HTRF (Protocol B)
Procedure: PBMC IC50 determination assay. The compounds of the present disclosure were tested for their inhibitory activity against IL-1β release upon NLRP3 activation in peripheral blood mononuclear cells (PBMC).
Protocol A. PBMC were isolated from buffy coats by density gradient centrifugation on Histopaque-1077 (Sigma, cat no. 10771). Isolated cells were seeded into the wells of a 96-well plate and incubated for 3 h with lipopolysaccharide (LPS). Following medium exchange, the compounds of the present disclosure were added (a single compound per well) and the cells were incubated for 30 min. Next, the cells were stimulated either with ATP (5 mM) or nigericin (10 μM) for 1 h and the cell culture media from the wells were collected for further analysis.
The release of IL-1β into the media was determined by a quantitative detection of IL-1β in the media using an IL-1β enzyme-linked immunosorbent assay (ELISA) Ready-SET-Go!, eBioscience cat. No. 88-7261-88. Briefly, in a first step, high affinity binding plates (Corning, Costar 9018 or NUNC Maxisorp Cat No. 44-2404) were coated overnight at 4° C. with specific capture antibody included in the kit (anti-human IL-1β ref. 14-7018-68). Subsequently, plates were blocked with blocking buffer for 1 h at room temperature (rt) and after washing with a buffer (PBS with 0.05% Tween-20) incubated with protein standard and culture media. After 2 h of incubation at rt, plates were washed and incubated with biotinylated detection antibody included in the kit (anti-human IL-1β Biotin ref 33-7110-68) for 1 h at rt. Plates were washed and incubated with HRP-streptavidin for 30 min at rt and washed again. The signal was developed after addition of 3,3′,5,5′-tetramethylbenzidine-peroxidase (TMB) until colour appeared and the reaction was stopped by 2 M H2SO4. A microplate spectrophotometer (BioTek) was used to detect signals with 450 nm. The detection range of IL-1β ELISA was […].
Protocol B. PBMC were isolated from buffy coats by density gradient centrifugation on Histopaque-1077 (Sigma, cat no. 10771). Isolated cells were seeded into the wells (280,000 cells/well) of a 96-well plate and incubated for 3 h with lipopolysaccharide (LPS, 1 μg/mL diluted 1000× from a 1 mg/mL stock solution). The compounds of the present disclosure were added (a single compound per well) and the cells were incubated for 30 min. Next, the cells were stimulated with ATP (5 mM final concentration diluted 20× from a 100 mM stock solution) for 1 h and the cell culture media from the wells were collected for further analysis.
The release of IL-1β into the media was determined by quantitative detection of IL-1β in the media using HTRF®, CisBio cat. No. 62HIL1BPEH. Briefly, cell culture supernatant were dispensed directly into the assay plate containing antibodies labelled with the HTRF® donor and acceptor. A microplate spectrophotometer (BMG) was used to detect signals at 655 nm and 620 nm. The detection range of IL-1β HTRF® was 39-6500 μg/mL.

Compound `CC(C)c1nn(CC(=O)Nc2ncc(F)cn2)c(=O)c2cn(C3CC3)nc12` [Compound 17, 2-(2-Cyclopropyl-7-isopropyl-4-oxo-pyrazolo[3,4-d]pyridazin-5-yl)-N-(5-fluoropyrimidin-2-yl) acetamide] has an IC50 of 100 to 1000 nM.

same assay, conditions: PBMC, PBMC primed with LPS 3 h, compound 30 min, stimulated with ATP (5 mM) or nigericin (10 μM) 1 h; IL-1β by ELISA (Protocol A) or HTRF (Protocol B)

Compared with `CCn1cc2c(=O)n(CC(=O)N[C@H]3CCCN4CCC[C@@H]34)nc(C(C)C)c2n1` (stereo in doubt) [Compound 7, N-[Cis-1,2,3,5,6,7,8,8a-octahydroindolizin-8-yl]-2-(2-ethyl-7-isopropyl-4-oxo-pyrazolo[3,4-d]pyridazin-5-yl) acetamide hydrochloride], `CCn1cc2c(=O)n(CC(=O)N[C@@H]3CCCN(C)C3)nc(C(C)C)c2n1` [Compound 6, 2-(2-Ethyl-7-isopropyl-4-oxo-pyrazolo[3,4-d]pyridazin-5-yl)-N-[(3R)-1-methyl-3-piperidyl]acetamide] is higher in IC50: 1000 to 3000 nM for the first, 10000 to 50000 nM for the second.

First: CC(C)c1nn(CC(=O)N[C@@H]2CCCN(C3CC3)C2)c(=O)c2c1cnn2C [Compound 1, N-[(3R)-1-Cyclopropyl-3-piperidyl]-2-(4-isopropyl-1-methyl-7-oxo-pyrazolo[3,4-d]pyridazin-6-yl)acetamide]
Second: CC(C)c1nn(CC(=O)N[C@@H]2CCCN(C3CC3)C2)c(=O)c2cnn(C)c12 [Compound 2, N-[(3R)-1-Cyclopropyl-3-piperidyl]-2-(7-isopropyl-1-methyl-4-oxo-pyrazolo[3,4-d]pyridazin-5-yl)acetamide]
The IC50 of the first is higher: 3000 to 10000 nM for the first, 1000 to 3000 nM for the second. The second is the more potent here.

Compared with `CC(C)c1nn(CC(=O)N[C@@H]2CCCN(C3CC3)C2)c(=O)c2cn(C)nc12` [Compound 3, N-[(3R)-1-Cyclopropyl-3-piperidyl]-2-(7-isopropyl-2-methyl-4-oxo-pyrazolo[3,4-d]pyridazin-5-yl)acetamide], `CC(C)c1nn(CC(=O)N[C@@H]2CCCN(C3CC3)C2)c(=O)c2nn(C)cc12` [Compound 9, N-[(3R)-1-Cyclopropyl-3-piperidyl]-2-(4-isopropyl-2-methyl-7-oxo-pyrazolo[3,4-d]pyridazin-6-yl)acetamide] is higher in IC50: 3000 to 10000 nM for the first, 10000 to 50000 nM for the second. The first is the more potent here.

Compared with `CCn1cc2c(=O)n(CC(=O)Nc3ncncc3F)nc(C(C)C)c2n1` [Compound 5, 2-(2-Ethyl-7-isopropyl-4-oxo-pyrazolo[3,4-d]pyridazin-5-yl)-N-(5-fluoropyrimidin-4-yl) acetamide], `CCn1cc2c(=O)n(CC(=O)Nc3ncc(F)cn3)nc(C(C)C)c2n1` [Compound 8, 2-(2-Ethyl-7-isopropyl-4-oxo-pyrazolo[3,4-d]pyridazin-5-yl)-N-(5-fluoropyrimidin-2-yl)acetamide] is lower in IC50: 1000 to 3000 nM for the first, 100 to 1000 nM for the second.

`CC(C)c1nn(CC(=O)N[C@@H]2CCCN(C3CC3)C2)c(=O)c2cc(Cl)sc12` [Compound 10, 2-(2-Chloro-7-isopropyl-4-oxo-thieno [2,3-d]pyridazin-5-yl)-N-[(3R)-1-cyclopropyl-3-piperidyl]acetamide] and `CC(C)c1nn(CC(=O)N[C@@H]2CCCN(C3CC3)C2)c(=O)c2sc(Cl)cc12` [Compound 11, 2-(2-Chloro-4-isopropyl-7-oxo-thieno[2,3-d]pyridazin-6-yl)-N-[(3R)-1-cyclopropyl-3-piperidyl]acetamide] fall in the same range of IC50: 1000 to 3000 nM for the first, 1000 to 3000 nM for the second.

`CCc1cc2c(=O)n(CC(=O)Nc3ncc(F)cn3)nc(C(C)C)c2s1` [Compound 12, 2-(2-Ethyl-7-isopropyl-4-oxo-thieno[2,3-d]pyridazin-5-yl)-N-(5-fluoropyrimidin-2-yl)acetamide] and `CCc1cc2c(C(C)C)nn(CC(=O)Nc3ncc(F)cn3)c(=O)c2s1` [Compound 24, 2-(2-Ethyl-4-isopropyl-7-oxo-thieno[2,3-d]pyridazin-6-yl)-N-(5-fluoropyrimidin-2-yl) acetamide] cannot be ordered by IC50: 100 to 1000 nM for the first, ≤ 100 nM for the second.

`C=C(C)c1nn(CC(=O)N[C@@H]2CCCN(C3CC3)C2)c(=O)c2ncn(C)c12` [Compound 13, N-[(3R)-1-Cyclopropyl-3-piperidyl]-2-(7-isopropenyl-1-methyl-4-oxo-imidazo[4,5-d]pyridazin-5-yl)acetamide] and `CC(C)c1nn(CC(=O)N[C@@H]2CCCN(C3CC3)C2)c(=O)c2ncn(C)c12` [Compound 14, N-[(3R)-1-Cyclopropyl-3-piperidyl]-2-(7-isopropyl-1-methyl-4-oxo-imidazo[4,5-d]pyridazin-5-yl)acetamide] fall in the same range of IC50: 10000 to 50000 nM for the first, 10000 to 50000 nM for the second.

`CC(C)c1nn(CC(=O)Nc2ncc(F)cn2)c(=O)c2cn(C(C)C)nc12` [Compound 15, 2-(2,7-Diisopropyl-4-oxo-pyrazolo[3,4-d]pyridazin-5-yl)-N-(5-fluoropyrimidin-2-yl)acetamide] and `CCc1cc2c(=O)n(CC(=O)Nc3ncc(F)cn3)nc(C(C)C)c2o1` [Compound 23, 2-(2-Ethyl-7-isopropyl-4-oxo-furo [2,3-d]pyridazin-5-yl)-N-(5-fluoropyrimidin-2-yl) acetamide] fall in the same range of IC50: 100 to 1000 nM for the first, 100 to 1000 nM for the second.

First: CC(C)c1nn(CC(=O)NC2CC3(COC3)C2)c(=O)c2cnc(C3CC3)cc12 [Compound 18, 2-(7-Cyclopropyl-1-isopropyl-4-oxo-pyrido[3,4-d]pyridazin-3-yl)-N-(2-oxaspiro[3.3]heptan-6-yl)acetamide]
Second: CC(C)c1nn(CC(=O)NC2CC3(COC3)C2)c(=O)c2ccc(C3CC3)nc12 [Compound 25, 2-(2-Cyclopropyl-8-isopropyl-5-oxo-pyrido[2,3-d]pyridazin-6-yl)-N-(2-oxaspiro[3.3]heptan-6-yl)acetamide]
The IC50 of the first is higher: 10000 to 50000 nM for the first, 1000 to 3000 nM for the second.

Compared with `Cc1nc(NC(=O)Cn2nc(C(C)C)c3cc(C4CC4)ncc3c2=O)ns1` [Compound 19, 2-(7-Cyclopropyl-1-isopropyl-4-oxo-pyrido[3,4-d]pyridazin-3-yl)-N-(5-methyl-1,2,4-thiadiazol-3-yl)acetamide], `Cc1nc(NC(=O)Cn2nc(C(C)C)c3nc(C4CC4)ccc3c2=O)ns1` [Compound 26, 2-(2-Cyclopropyl-8-isopropyl-5-oxo-pyrido[2,3-d]pyridazin-6-yl)-N-(5-methyl-1,2,4-thiadiazol-3-yl)acetamide] is lower in IC50: 10000 to 50000 nM for the first, 100 to 1000 nM for the second.

`CCc1nn(CC(=O)Nc2ncc(F)cn2)c(=O)c2cn(CC)nc12` [Compound 20, 2-(2,7-Diethyl-4-oxo-pyrazolo[3,4-d]pyridazin-5-yl)-N-(5-fluoropyrimidin-2-yl)acetamide] and `CCc1nn(CC(=O)Nc2ncccn2)c(=O)c2cn(CC)nc12` [Compound 21, 2-(2,7-Diethyl-4-oxo-pyrazolo[3,4-d]pyridazin-5-yl)-N-pyrimidin-2-yl-acetamide] fall in the same range of IC50: 10000 to 50000 nM for the first, 10000 to 50000 nM for the second.

First: CCc1nn(CC(=O)NC2CC3(COC3)C2)c(=O)c2cn(CC)nc12 [Compound 22, 2-(2,7-Diethyl-4-oxo-pyrazolo[3,4-d]pyridazin-5-yl)-N-(2-oxaspiro[3.3]heptan-6-yl)acetamide]
Second: COCc1cc2c(C(C)C)nn(CC(=O)N[C@@H]3CCCN(C4CCC4)C3)c(=O)c2s1 [Compound 31, N-[(3R)-1-Cyclobutyl-3-piperidyl]-2-[4-isopropyl-2-(methoxymethyl)-7-oxo-thieno [2,3-d]pyridazin-6-yl]acetamide hydrochloride]
The IC50 of the first is higher: 10000 to 50000 nM for the first, 1000 to 3000 nM for the second.

`CC(C)c1nn(CC(=O)Nc2ncccn2)c(=O)c2ccc(C3CC3)nc12` [Compound 27, 2-(2-Cyclopropyl-8-isopropyl-5-oxo-pyrido [2,3-d]pyridazin-6-yl)-N-pyrimidin-2-yl-acetamide] and `CC(C)c1nn(CC(=O)Nc2ncc(F)cn2)c(=O)c2ccc(C3CC3)nc12` [Compound 28, 2-(2-Cyclopropyl-8-isopropyl-5-oxo-pyrido[2,3-d]pyridazin-6-yl)-N-(5-fluoropyrimidin-2-yl)acetamide] fall in the same range of IC50: 100 to 1000 nM for the first, 100 to 1000 nM for the second.

Compared with `CC(C)c1nn(CC(=O)N[C@@H]2CCCN(C3CCC3)C2)c(=O)c2sc(Br)cc12` [Compound 29, 2-(2-Bromo-4-isopropyl-7-oxo-thieno[2,3-d]pyridazin-6-yl)-N-[(3R)-1-cyclobutyl-3-piperidyl]acetamide], `CC(C)c1nn(CC(=O)N[C@@H]2CCCN(C3CCC3)C2)c(=O)c2sc(C#N)cc12` [Compound 30, 2-(2-Cyano-4-isopropyl-7-oxo-thieno[2,3-d]pyridazin-6-yl)-N-[(3R)-1-cyclobutyl-3-piperidyl]acetamide] is higher in IC50: 100 to 1000 nM for the first, 3000 to 10000 nM for the second. The first is the more potent here.
